Source: ChEMBL document CHEMBL1140631, “Carbonic anhydrases as targets for medicinal chemistry” (Bioorg Med Chem, 2007)

Target: T1, Carbonic anhydrase 4 (Bos taurus, UniProt Q95323)
T1 sequence (Q95323 whole entry): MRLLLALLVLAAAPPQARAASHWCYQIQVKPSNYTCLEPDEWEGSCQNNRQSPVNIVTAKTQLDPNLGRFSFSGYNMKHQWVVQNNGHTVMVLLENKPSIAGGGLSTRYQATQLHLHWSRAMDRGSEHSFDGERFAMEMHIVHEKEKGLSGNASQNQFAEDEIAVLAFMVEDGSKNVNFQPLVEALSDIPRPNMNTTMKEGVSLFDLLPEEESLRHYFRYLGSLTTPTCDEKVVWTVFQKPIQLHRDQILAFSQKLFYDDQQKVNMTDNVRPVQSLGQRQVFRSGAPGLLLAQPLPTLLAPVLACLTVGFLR

Row | Structure (SMILES) | Ki
1 | NS(=O)(=O)c1ccc(CC/N=C/c2ccccc2OC(=O)NS(=O)(=O)c2ccccc2)cc1 | 11 nM
2 | Cn1cccc1/C=N/Cc1ccc(S(N)(=O)=O)cc1 | 10 nM
3 | NS(=O)(=O)c1nnc(NC(=O)Nc2ccc(Cl)c(Cl)c2)s1 | 8 nM
4 | NC(=O)Nc1ccc(S(=O)(=O)Nc2cccc(S(N)(=O)=O)c2)cc1 | 25 nM
5 | Cc1ccc(S(=O)(=O)NC(=O)Nc2c(S(N)(=O)=O)cc(S(N)(=O)=O)c(Cl)c2Cl)cc1 | 14 nM
6 | NS(=O)(=O)c1ccc(CC/N=C/c2ccccc2OC(=O)NS(=O)(=O)c2ccc(Cl)cc2)cc1 | 160 nM

More lines, now with the values ahead:

Row | Ki | Structure (SMILES)
7 | 20 nM | NC(=O)Nc1ccc(S(=O)(=O)Nc2ccc(S(N)(=O)=O)cc2)cc1
8 | 12 nM | NS(=O)(=O)c1ccc(CC/N=C/c2ccncc2)cc1
9 | 24 nM | NS(=O)(=O)c1ccc(CCNC(=S)NC(=O)Nc2ccc(Cl)c(Cl)c2)cc1
10 | 10 nM | NS(=O)(=O)c1ccc(CC/N=C/c2ccc[nH]2)cc1
11 | 140 nM | NS(=O)(=O)c1ccc(CC/N=C/c2cccc([N+](=O)[O-])c2)cc1
12 | 8 nM | Cn1cccc1/C=N/CCc1ccc(S(N)(=O)=O)cc1
13 | 70 nM | NS(=O)(=O)c1ccc(CCNC(=S)Nc2ccccc2)cc1
14 | 120 nM | Cc1ccc(S(=O)(=O)NC(=O)Oc2ccccc2/C=N/CCc2ccc(S(N)(=O)=O)cc2)cc1
